Results: patent US20080274892A1, “Novel Haloalkylsulfonanilide Derivative, Herbicide, and Method of Use Thereof” (priority 2005, published 2008)

Columns and labels:
bulrush [1] = assay: Test Example 1: herbicidal efficacy on rice paddy weeds pre-emergence; type: in vivo, Scirpus juncoides; conditions: 21 days
false pimpernel [2] = assay: as above; type: in vivo, Lindernia pyxidaria; conditions: 21 days
barnyard glass = assay: Test Example 2: herbicidal efficacy on rice paddy weeds post-emergence; type: in vivo, Echinochloa crus-galli; conditions: post-emergence, one leaf stage, 21 days after treatment
Description: The standard of judgment for herbicidal efficacy (degree of growth inhibition) and phytotoxicity 4 . . . 90%-100% of herbicidal efficacy or phytotoxicity 3 . . . 70%-89% of herbicidal efficacy or phytotoxicity 2 . . . 40%-69% of herbicidal efficacy or phytotoxicity 1 . . . 1%-39% of herbicidal efficacy or phytotoxicity 0 . . . 0% of herbicidal efficacy or phytotoxicity
A 75 cm^2 plastic pot was filled with soil (clay loam) and planted seeds of barnyard glass and bulrush which is a rice paddy weed. After covering the top with 75 cm^3 soil mixed with seeds of false pimpernel, the pot was filled with water so that the soil submerged under 5 cm depth of water and kept in a hot house. […] The pot was kept in a hot house for 21 days after the treatment and the herbicidal efficacy was investigated and evaluated according to the standard in Test Example 1 by comparing with the untreated control. “-” in the table represents test not done.

bulrush [3] = assay: as above; type: in vivo, Scirpus juncoides; conditions: post-emergence, one leaf stage, 21 days after treatment
false pimpernel [4] = assay: as above; type: in vivo, Lindernia pyxidaria; conditions: post-emergence, one leaf stage, 21 days after treatment
[5] = test system: paddy rice plant (cultivar: Nihonbare); assay: Test Example 3: phytotoxicity test for transplanted paddy rice plant; type: in vivo; conditions: transplanted rice, 21 days after treatment
Method in brief: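 Clay loam soil was placed in a 75 cm^2 plastic pot and flooded to a water depth of 5 cm. Two Nihonbare paddy rice plants at the two-leaf stage were transplanted 1 cm deep and grown in a hot house. After treatment, pots stayed in the hot house for 21 days, and phytotoxicity was then graded against an untreated control.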

[6] = dosage 1000 g/ha, treated 5 days after transplantation

Compound | Bulrush pre (herbicidal efficacy grade) (bulrush [1]; dosage 300 g/ha) | False pimpernel pre (herbicidal efficacy grade) (false pimpernel [2]; dosage 300 g/ha) | Burnyard grass post (herbicidal efficacy grade) (barnyard glass; dosage 300 g/ha) | Bulrush post (herbicidal efficacy grade) (bulrush [3]; dosage 300 g/ha) | False pimpernel post (herbicidal efficacy grade) (false pimpernel [4]; dosage 300 g/ha) | Phytotoxicity to paddy rice ([5]; dosage 300 g/ha) | Bulrush pre (herbicidal efficacy grade) (bulrush [1]; dosage 1000 g/ha) | False pimpernel pre (herbicidal efficacy grade) (false pimpernel [2]; dosage 1000 g/ha) | Burnyard grass post (herbicidal efficacy grade) (barnyard glass; dosage 1000 g/ha) | Bulrush post (herbicidal efficacy grade) (bulrush [3]; dosage 1000 g/ha) | False pimpernel post (herbicidal efficacy grade) (false pimpernel [4]; dosage 1000 g/ha) | Phytotoxicity to paddy rice [5, 6]
CC(=O)OCC1CN(Cc2ccccc2NS(=O)(=O)C(F)(F)F)C(=O)O1 (stereo not drawn) [Compound 1-37] | 0 (0% of herbicidal efficacy or phytotoxicity) | 1 (1%-39% of herbicidal efficacy or phytotoxicity) | 0 (0% of herbicidal efficacy or phytotoxicity) | 0 (0% of herbicidal efficacy or phytotoxicity) | 3 (70%-89% of herbicidal efficacy or phytotoxicity) | 0 (0% of herbicidal efficacy or phytotoxicity) | – | – | – | – | – | –
CC(=O)OCC1CN(Cc2ccccc2N(C(=O)OCC(C)C)S(=O)(=O)C(F)(F)F)C(=O)O1 (stereo not drawn) [Compound 1-38] | 3 (70%-89% of herbicidal efficacy or phytotoxicity) | 2 (40%-69% of herbicidal efficacy or phytotoxicity) | 1 (1%-39% of herbicidal efficacy or phytotoxicity) | 3 (70%-89% of herbicidal efficacy or phytotoxicity) | 1 (1%-39% of herbicidal efficacy or phytotoxicity) | 0 (0% of herbicidal efficacy or phytotoxicity) | – | – | – | – | – | –
O=C1OC(CCl)CN1Cc1ccccc1NS(=O)(=O)C(F)(F)F (stereo not drawn) [Compound 1-39] | – | – | – | – | – | – | 4 (90%-100% of herbicidal efficacy or phytotoxicity) | 4 (90%-100% of herbicidal efficacy or phytotoxicity) | 2 (40%-69% of herbicidal efficacy or phytotoxicity) | 4 (90%-100% of herbicidal efficacy or phytotoxicity) | 4 (90%-100% of herbicidal efficacy or phytotoxicity) | 0 (0% of herbicidal efficacy or phytotoxicity)
O=C1OC(c2ccccc2)CN1Cc1ccccc1NS(=O)(=O)C(F)(F)F (stereo not drawn) [Compound 1-41] | – | – | – | – | – | – | 4 (90%-100% of herbicidal efficacy or phytotoxicity) | 4 (90%-100% of herbicidal efficacy or phytotoxicity) | 4 (90%-100% of herbicidal efficacy or phytotoxicity) | 3 (70%-89% of herbicidal efficacy or phytotoxicity) | 2 (40%-69% of herbicidal efficacy or phytotoxicity) | 1 (1%-39% of herbicidal efficacy or phytotoxicity)
CC(C)COC(=O)N(c1ccccc1CN1CC(c2ccccc2)OC1=O)S(=O)(=O)C(F)(F)F (stereo not drawn) [Compound 1-42] | – | – | – | – | – | – | 3 (70%-89% of herbicidal efficacy or phytotoxicity) | 4 (90%-100% of herbicidal efficacy or phytotoxicity) | 4 (90%-100% of herbicidal efficacy or phytotoxicity) | 3 (70%-89% of herbicidal efficacy or phytotoxicity) | 3 (70%-89% of herbicidal efficacy or phytotoxicity) | 0 (0% of herbicidal efficacy or phytotoxicity)
O=C1OC2(CCCCC2)CN1Cc1ccccc1NS(=O)(=O)C(F)(F)F [Compound 1-45] | – | – | – | – | – | – | 4 (90%-100% of herbicidal efficacy or phytotoxicity) | 4 (90%-100% of herbicidal efficacy or phytotoxicity) | 4 (90%-100% of herbicidal efficacy or phytotoxicity) | 4 (90%-100% of herbicidal efficacy or phytotoxicity) | 4 (90%-100% of herbicidal efficacy or phytotoxicity) | 2 (40%-69% of herbicidal efficacy or phytotoxicity)
O=C1OC2CCCCC2N1Cc1ccccc1NS(=O)(=O)C(F)(F)F (stereo not drawn) [Compound 1-47] | – | – | – | – | – | – | 4 (90%-100% of herbicidal efficacy or phytotoxicity) | 4 (90%-100% of herbicidal efficacy or phytotoxicity) | 4 (90%-100% of herbicidal efficacy or phytotoxicity) | 4 (90%-100% of herbicidal efficacy or phytotoxicity) | 4 (90%-100% of herbicidal efficacy or phytotoxicity) | 2 (40%-69% of herbicidal efficacy or phytotoxicity)
CC[C@H]1CN(Cc2ccccc2NS(=O)(=O)C(F)(F)F)C(=O)O1 [Compound 1-55] | – | – | – | – | – | – | 4 (90%-100% of herbicidal efficacy or phytotoxicity) | 4 (90%-100% of herbicidal efficacy or phytotoxicity) | 4 (90%-100% of herbicidal efficacy or phytotoxicity) | 4 (90%-100% of herbicidal efficacy or phytotoxicity) | 4 (90%-100% of herbicidal efficacy or phytotoxicity) | 1 (1%-39% of herbicidal efficacy or phytotoxicity)
CC[C@H]1CN(Cc2ccccc2N(C(=O)OCC(C)C)S(=O)(=O)C(F)(F)F)C(=O)O1 [Compound 1-56] | 4 (90%-100% of herbicidal efficacy or phytotoxicity) | 4 (90%-100% of herbicidal efficacy or phytotoxicity) | 4 (90%-100% of herbicidal efficacy or phytotoxicity) | 4 (90%-100% of herbicidal efficacy or phytotoxicity) | 3 (70%-89% of herbicidal efficacy or phytotoxicity) | 1 (1%-39% of herbicidal efficacy or phytotoxicity) | – | – | – | – | – | –
CC(C)(C)C1(C)CN(Cc2ccccc2NS(=O)(=O)C(F)(F)F)C(=O)O1 (stereo not drawn) [Compound 1-69] | 4 (90%-100% of herbicidal efficacy or phytotoxicity) | 4 (90%-100% of herbicidal efficacy or phytotoxicity) | 3 (70%-89% of herbicidal efficacy or phytotoxicity) | 4 (90%-100% of herbicidal efficacy or phytotoxicity) | 4 (90%-100% of herbicidal efficacy or phytotoxicity) | 1 (1%-39% of herbicidal efficacy or phytotoxicity) | – | – | – | – | – | –
CC(C)COC(=O)N(c1ccccc1CN1CC(C)(C(C)(C)C)OC1=O)S(=O)(=O)C(F)(F)F (stereo not drawn) [Compound 1-70] | – | – | – | – | – | – | 4 (90%-100% of herbicidal efficacy or phytotoxicity) | 4 (90%-100% of herbicidal efficacy or phytotoxicity) | 4 (90%-100% of herbicidal efficacy or phytotoxicity) | 4 (90%-100% of herbicidal efficacy or phytotoxicity) | 4 (90%-100% of herbicidal efficacy or phytotoxicity) | 1 (1%-39% of herbicidal efficacy or phytotoxicity)
CC1(C)OC(=O)N(Cc2ccccc2NS(=O)(=O)C(F)(F)F)C1(C)C [Compound 1-73] | – | – | – | – | – | – | 4 (90%-100% of herbicidal efficacy or phytotoxicity) | 4 (90%-100% of herbicidal efficacy or phytotoxicity) | 4 (90%-100% of herbicidal efficacy or phytotoxicity) | 4 (90%-100% of herbicidal efficacy or phytotoxicity) | 4 (90%-100% of herbicidal efficacy or phytotoxicity) | 4 (90%-100% of herbicidal efficacy or phytotoxicity)
CC(C)COC(=O)N(c1ccccc1CN1C(=O)OC(C)(C)C1(C)C)S(=O)(=O)C(F)(F)F [Compound 1-74] | – | – | – | – | – | – | 4 (90%-100% of herbicidal efficacy or phytotoxicity) | 4 (90%-100% of herbicidal efficacy or phytotoxicity) | 4 (90%-100% of herbicidal efficacy or phytotoxicity) | 4 (90%-100% of herbicidal efficacy or phytotoxicity) | 4 (90%-100% of herbicidal efficacy or phytotoxicity) | 4 (90%-100% of herbicidal efficacy or phytotoxicity)
CC1N(Cc2ccccc2NS(=O)(=O)C(F)(F)F)C(=O)OC1(C)C (stereo not drawn) [Compound 1-96] | – | – | – | – | – | – | 4 (90%-100% of herbicidal efficacy or phytotoxicity) | 4 (90%-100% of herbicidal efficacy or phytotoxicity) | 4 (90%-100% of herbicidal efficacy or phytotoxicity) | 4 (90%-100% of herbicidal efficacy or phytotoxicity) | 4 (90%-100% of herbicidal efficacy or phytotoxicity) | 3 (70%-89% of herbicidal efficacy or phytotoxicity)
